Patent US20020137929A1, “1 - (3-heterocyclylphenyl) isothiourea, -isourea, -guanidine and -amidine herbicidal agents” (Intellectual Property Department, BASF Aktiengesellschaft, priority 1998, published 2002)

How the values were obtained:
[1] = tested on: GLXMAW (Soybean, Williams); test: Preemergence herbicidal evaluation; type: in vivo, Glycine max, (L.) Merr. cv Williams; conditions: rated 4-5 weeks after treatment
Source text: (§1) Results of herbicide evaluation are expressed on a rating scale (0-9). The scale is based upon a visual observation of plant stand, vigor, malformation, size, chlorosis and overall plant appearance as compared with a control.
(§2) The preemergence herbicidal activity of the test compounds of the present invention is exemplified by the following tests in which the seeds of a variety of monocotyledonous and dicotyledonous plants are separately mixed with potting soil and planted on top of approximately one inch of soil in separate pint cups. After planting, the cups are sprayed with the selected aqueous acetone solution containing test compound in sufficient quantity to provide the equivalent of about 0.0156 to 0.500 kg per hectare of test compound per cup. The treated cups are then placed on greenhouse benches, watered and cared for in accordance with conventional greenhouse procedures. From four to five weeks after treatment, the tests are terminated and each cup is examined and rated according to the rating system provided in Example 37.
(§3) The compounds evaluated are reported by compound number given in Example 37.

[2] = tested on: CHEAL (Lambsquarters, Common); test: Postemergence herbicidal evaluation; type: in vivo, Chenopodium album; conditions: postemergence
Procedure: (§4) In the tests, seedling plants are grown in jiffy flats for about two weeks. The test compounds are dispersed in 50/50 acetone/water mixtures containing 0.5% TWEEN®20, a polyoxyethylene sorbitan monolaurate surfactant of Atlas Chemical Industries, in sufficient quantities to provide the equivalent of about 0.0156 kg to 0.500 kg per hectare of active compound when applied to the plants through a spray nozzle operating at 40 psi for a predetermined time. After spraying, the plants are placed on greenhouse benches and are cared for in accordance with conventional greenhouse procedures. From four to five weeks after treatment, the seedling plants are examined and rated according to the rating system set forth below. Where more than one test is involved for a given compound, the data are averaged.
(§5) Plant species employed in these evaluations are reported by header abbreviation, common name and scientific name.
as §1

GALAP (Galium) = test: Preemergence herbicidal evaluation; type: in vivo, Galium aparine; conditions: rated 4-5 weeks after treatment
Source text: as §1, §2, §3

[3] = tested on: IPOHE (Morningglory, Ivyleaf); test: Postemergence herbicidal evaluation; type: in vivo, Ipomoea hederacea; conditions: postemergence
Procedure: as §4, §5, §1

ECHCG (Barnyardgrass) = test: Preemergence herbicidal evaluation; type: in vivo, Echinochloa crus-galli; conditions: rated 4-5 weeks after treatment
Source text: as §1, §2, §3

[4] = rate 0.0156 kg/ha, rating scale 0-9
[5] = rate 0.0313 kg/ha, rating scale 0-9
[6] = rate 0.0625 kg/ha, rating scale 0-9
[7] = rate 0.2500 kg/ha, rating scale 0-9
[8] = rate 0.1250 kg/ha, rating scale 0-9

Cn1c(C(F)(F)F)cc(=O)n(-c2cc(N=C3SCC(=O)N3C3CCCC3)c(Cl)cc2F)c1=O [Compound 166, 3-{4-Chloro-5-[(3-cyclopentyl-4-oxo-2-thiazolidinylidene)amino]-2-fluorophenyl}-1-methyl-6-(trifluoromethyl)-2,4(1H,3H)-pyrimidinedione]
7.0: Herbicidal rating CHEAL ([2]; rate 0.1250 kg/ha) | Preemergence herbicidal rating GALAP (GALAP (Galium); 0.2500 kg/ha) | Herbicidal rating IPOHE ([3]; rate 0.1250 kg/ha)
0.0: Preemergence herbicidal rating GLXMAW ([1]; 0.0156 kg/ha) | Herbicidal rating CHEAL ([2]; rate 0.0156 kg/ha) | Preemergence herbicidal rating GALAP (GALAP (Galium); 0.0156 kg/ha) | Preemergence herbicidal rating GALAP (GALAP (Galium); 0.0313 kg/ha) | Herbicidal rating IPOHE ([3]; rate 0.0156 kg/ha) | Preemergence herbicidal rating ECHCG (ECHCG (Barnyardgrass); 0.0156 kg/ha) | Preemergence herbicidal rating ECHCG (ECHCG (Barnyardgrass); 0.0313 kg/ha) | Preemergence herbicidal rating ECHCG (ECHCG (Barnyardgrass); 0.1250 kg/ha) | Preemergence herbicidal rating ECHCG (ECHCG (Barnyardgrass); 0.2500 kg/ha)
6.0: Preemergence herbicidal rating GLXMAW ([1]; 0.2500 kg/ha) | Preemergence herbicidal rating GLXMAW ([1]; 0.5000 kg/ha)
2.0: Preemergence herbicidal rating GLXMAW ([1]; 0.0313 kg/ha) | Preemergence herbicidal rating GLXMAW ([1]; 0.0625 kg/ha) | Preemergence herbicidal rating GLXMAW ([1]; 0.1250 kg/ha) | Preemergence herbicidal rating GALAP (GALAP (Galium); 0.0625 kg/ha) | Herbicidal rating IPOHE ([3]; rate 0.0313 kg/ha) | Herbicidal rating IPOHE ([3]; rate 0.0625 kg/ha)
8.0: Preemergence herbicidal rating GALAP (GALAP (Galium); 0.5000 kg/ha)
5.0: Preemergence herbicidal rating GALAP (GALAP (Galium); 0.1250 kg/ha)
1.0: Herbicidal rating CHEAL ([2]; rate 0.0313 kg/ha) | Preemergence herbicidal rating ECHCG (ECHCG (Barnyardgrass); 0.0625 kg/ha)
4.0: Herbicidal rating CHEAL ([2]; rate 0.0625 kg/ha) | Preemergence herbicidal rating ECHCG (ECHCG (Barnyardgrass); 0.5000 kg/ha)

C=C1SC(=Nc2cc(-n3c(=O)cc(C(F)(F)F)n(C)c3=O)c(F)cc2Cl)N(CC(=O)OCC)C1=O [Compound 154]
9.0: Herbicidal rating CHEAL ([2]; rate 0.0156 kg/ha) | Herbicidal rating CHEAL ([2]; rate 0.0313 kg/ha) | Herbicidal rating CHEAL ([2]; rate 0.0625 kg/ha) | Preemergence herbicidal rating GALAP (GALAP (Galium); [8]) | Preemergence herbicidal rating GALAP (GALAP (Galium); [7]) | Herbicidal rating IPOHE ([3]; rate 0.0156 kg/ha) | Herbicidal rating IPOHE ([3]; rate 0.0313 kg/ha) | Herbicidal rating IPOHE ([3]; rate 0.0625 kg/ha) | Preemergence herbicidal rating ECHCG (ECHCG (Barnyardgrass); [6]) | Preemergence herbicidal rating ECHCG (ECHCG (Barnyardgrass); [8]) | Preemergence herbicidal rating ECHCG (ECHCG (Barnyardgrass); [7])
4.0: Preemergence herbicidal rating GALAP (GALAP (Galium); [6]) | Preemergence herbicidal rating ECHCG (ECHCG (Barnyardgrass); [5])
0.0: Preemergence herbicidal rating GLXMAW [1, 4] | Preemergence herbicidal rating GALAP (GALAP (Galium); [4]) | Preemergence herbicidal rating GALAP (GALAP (Galium); [5]) | Preemergence herbicidal rating ECHCG (ECHCG (Barnyardgrass); [4])
8.0: Preemergence herbicidal rating GLXMAW [1, 7]
5.0: Preemergence herbicidal rating GLXMAW [1, 6]
2.0: Preemergence herbicidal rating GLXMAW [1, 5]

Cn1c(C(F)(F)F)cc(=O)n(-c2cc(N=C3SCC(=O)N3Cc3ccc(F)cc3)c(Cl)cc2F)c1=O [Compound 151, 3-{4-Chloro-2-fluoro-5-{[3-(p-fluorobenzyl)-4-oxo-2-thiazolidinylidene]amino}phenyl}-1-methyl-6-(trifluoromethyl)-2,4(1H,3H)-pyrimidinedione]
9.0: Herbicidal rating CHEAL ([2]; rate 0.0156 kg/ha) | Herbicidal rating CHEAL ([2]; rate 0.0625 kg/ha) | Preemergence herbicidal rating GALAP (GALAP (Galium); [8]) | Preemergence herbicidal rating GALAP (GALAP (Galium); [7]) | Herbicidal rating IPOHE ([3]; rate 0.0156 kg/ha) | Herbicidal rating IPOHE ([3]; rate 0.0313 kg/ha) | Herbicidal rating IPOHE ([3]; rate 0.0625 kg/ha) | Preemergence herbicidal rating ECHCG (ECHCG (Barnyardgrass); [5]) | Preemergence herbicidal rating ECHCG (ECHCG (Barnyardgrass); [8]) | Preemergence herbicidal rating ECHCG (ECHCG (Barnyardgrass); [7])
5.0: Preemergence herbicidal rating GLXMAW [1, 5]
2.0: Preemergence herbicidal rating GLXMAW [1, 4] | Preemergence herbicidal rating GALAP (GALAP (Galium); [4]) | Preemergence herbicidal rating ECHCG (ECHCG (Barnyardgrass); [4])
7.0: Preemergence herbicidal rating GLXMAW [1, 8] | Preemergence herbicidal rating GLXMAW [1, 7] | Herbicidal rating CHEAL ([2]; rate 0.0313 kg/ha) | Preemergence herbicidal rating ECHCG (ECHCG (Barnyardgrass); [6])
4.0: Preemergence herbicidal rating GLXMAW [1, 6] | Preemergence herbicidal rating GALAP (GALAP (Galium); [5]) | Preemergence herbicidal rating GALAP (GALAP (Galium); [6])

CC(C)OC(=O)CN1C(=O)CSC1=Nc1cc(-n2c(=O)cc(C(F)(F)F)n(C)c2=O)c(F)cc1Cl [Compound 110]
4.0: Preemergence herbicidal rating GLXMAW ([1]; rate 0.1250 kg/ha) | Preemergence herbicidal rating ECHCG (ECHCG (Barnyardgrass); rate 0.5000 kg/ha)
7.0: Preemergence herbicidal rating GLXMAW ([1]; rate 0.5000 kg/ha)
9.0: Herbicidal rating CHEAL ([2]; rate 0.0158 kg/ha) | Herbicidal rating CHEAL ([2]; rate 0.0315 kg/ha) | Herbicidal rating CHEAL ([2]; rate 0.0630 kg/ha) | Herbicidal rating IPOHE ([3]; rate 0.0158 kg/ha) | Herbicidal rating IPOHE ([3]; rate 0.0315 kg/ha) | Herbicidal rating IPOHE ([3]; rate 0.0630 kg/ha)
5.5: Preemergence herbicidal rating GLXMAW ([1]; rate 0.2500 kg/ha)
0.0: Preemergence herbicidal rating GALAP (GALAP (Galium); rate 0.0156 kg/ha) | Preemergence herbicidal rating GALAP (GALAP (Galium); rate 0.0313 kg/ha) | Preemergence herbicidal rating GALAP (GALAP (Galium); rate 0.0625 kg/ha) | Preemergence herbicidal rating GALAP (GALAP (Galium); rate 0.1250 kg/ha) | Preemergence herbicidal rating ECHCG (ECHCG (Barnyardgrass); rate 0.0156 kg/ha) | Preemergence herbicidal rating ECHCG (ECHCG (Barnyardgrass); rate 0.0313 kg/ha)
3.0: Preemergence herbicidal rating ECHCG (ECHCG (Barnyardgrass); rate 0.2500 kg/ha)
2.5: Preemergence herbicidal rating GLXMAW ([1]; rate 0.0625 kg/ha)
2.0: Preemergence herbicidal rating GALAP (GALAP (Galium); rate 0.2500 kg/ha) | Preemergence herbicidal rating ECHCG (ECHCG (Barnyardgrass); rate 0.1250 kg/ha)
0.5: Preemergence herbicidal rating GLXMAW ([1]; rate 0.0156 kg/ha) | Preemergence herbicidal rating GLXMAW ([1]; rate 0.0313 kg/ha) | Preemergence herbicidal rating ECHCG (ECHCG (Barnyardgrass); rate 0.0625 kg/ha)

Cn1c(C(F)(F)F)cc(=O)n(-c2cc(N=C3SCC(=O)N3Cc3ccc(Cl)c(Cl)c3)c(Cl)cc2F)c1=O [Compound 144, 3-{4-Chloro-5-{[3-(3,4-dichlorobenzyl)-4-oxo-2-thiazolidinylidene]amino}-2-fluorophenyl}-1-methyl-6-(trifluoromethyl)-2,4(1H,3H)-pyrimidinedione]
9.0: Herbicidal rating CHEAL ([2]; rate 0.0313 kg/ha) | Herbicidal rating CHEAL ([2]; rate 0.0625 kg/ha) | Herbicidal rating IPOHE ([3]; rate 0.0156 kg/ha) | Herbicidal rating IPOHE ([3]; rate 0.0313 kg/ha) | Herbicidal rating IPOHE ([3]; rate 0.0625 kg/ha)
7.0: Herbicidal rating CHEAL ([2]; rate 0.0156 kg/ha)
1.0: Preemergence herbicidal rating GALAP (GALAP (Galium); [4]) | Preemergence herbicidal rating GALAP (GALAP (Galium); [5]) | Preemergence herbicidal rating GALAP (GALAP (Galium); [6]) | Preemergence herbicidal rating ECHCG (ECHCG (Barnyardgrass); [7])
0.0: Preemergence herbicidal rating GLXMAW [1, 4] | Preemergence herbicidal rating GLXMAW [1, 5] | Preemergence herbicidal rating GLXMAW [1, 6] | Preemergence herbicidal rating GLXMAW [1, 8] | Preemergence herbicidal rating GLXMAW [1, 7] | Preemergence herbicidal rating ECHCG (ECHCG (Barnyardgrass); [4]) | Preemergence herbicidal rating ECHCG (ECHCG (Barnyardgrass); [5]) | Preemergence herbicidal rating ECHCG (ECHCG (Barnyardgrass); [6]) | Preemergence herbicidal rating ECHCG (ECHCG (Barnyardgrass); [8])
2.0: Preemergence herbicidal rating GALAP (GALAP (Galium); [8]) | Preemergence herbicidal rating GALAP (GALAP (Galium); [7])
